According to patent US20110171221A1, “COMPOSITIONS AND METHODS FOR THE TREATMENT OF A NEOPLASIA” (University of Florida Research Foundation, priority 2008, published 2011):
“Also recorded” adds a separate entry of the source.

Tests used:
[1] = system: Sox2, Oct 3/4 and Nanog expression in metastatic prostate stem cell lines; test: Western blot of stem cell markers after Docetaxel; type: cell-based, human; settings: Docetaxel 1 nM, 2 nM, 5 nM, 10 nM
Experimental: (§1) Prostate cancer stem cells from metastatic prostate cancer cell lines were examined for their sensitivity to conventional cancer treatments (e.g., radiation and chemotherapy). […] Metastatic prostate stem cell lines were also treated with Docetaxel, a frontline treatment for drug-resistant cancer cells.
For the experiments described above, Western-blot analysis was performed by standard methods on isolated cancer stem cells and non-cancer stem cells. Whole cell lysates were prepared in lysis buffer with a commercially available protease inhibitor cocktail (Pierce) at 4° C., followed by centrifugation at 13,000×g for 10 min. Extracts were separated by SDS/PAGE and transferred to nitrocellulose membranes. The membranes were blocked with 5% nonfat dry milk in 20 mM Tris-HCl (pH 7.5), 500 mM sodium chloride, and 0.05% Tween 20 for 2 h and then incubated with commercially available primary antibodies against OCT3/4, c-Myc, β-actin (Cell Signaling), SOX2, Klf4 (Santa Cruz), Nanog (BioLegend), or E-cadherin (BD Bioscience) in the same buffer with 1% BSA (fraction V). After washing, the blots were incubated with an HRP-conjugated secondary antibody and visualized with a commercially available chemiluminescence detection system (Amersham). β-actin-specific Abs were used to ensure equal protein loading.

[2] = system: prostate cancer stem cells (CSC) and non-stem prostate cancer cells (Non-CSC); test: cell viability after Docetaxel; type: cell-based, human; settings: 5 nM Docetaxel, Day 0, 1, 2 and 3 (up to 72 hours)
Experimental: FIG. 12B is a graph depicting the cell viability of prostate cancer stem cells (CSC) and non-stem prostate cancer cells (Non-CSC) observed for up to 72 hours after treatment with Docetaxel. Cell viability was determined by quantifying the surviving prostate cancer stem cells (CSC) and non-stem prostate cancer cells (Non-CSC) in the samples exposed to 5 nM Docetaxel at Day 0, 1, 2 and 3.
as §1

CC(=O)O[C@@]12CO[C@@H]1C[C@H](O)[C@@]1(C)C(=O)[C@H](O)C3=C(C)[C@@H](OC(=O)[C@H](O)[C@@H](NC(=O)OC(C)(C)C)c4ccccc4)C[C@@](O)([C@@H](OC(=O)c4ccccc4)[C@H]21)C3(C)C [Docetaxel]
detection of Sox2, Oct 3/4 and Nanog expression [1]: increased detection of Sox2, Oct 3/4 and Nanog expression with increasing dose
cell viability of prostate cancer stem cells vs non-stem prostate cancer cells [2]: more cell viability compared to non-stem prostate cancer cells; also recorded: resistant
